Laboratory results published in ChEMBL document CHEMBL4828727, “Antibacterial and antitumoral properties of 1,2,3-triazolo fused triterpenes and their mechanism of inhibiting the proliferation of HL-60 cells” (Eur J Med Chem, 2021).
Values after ≈ are worked out from the molar mass of the structure shown. Active and inactive are the calls of the source. The calls are words filed in the database; no cut-off is given here.

Key:
CAPAN-1 = experiment: cells; assay type: functional, cell-based; settings: Homo sapiens, CAPAN-1, 72 h
Description: Antiproliferative activity against human CAPAN-1 cells assessed as inhibition of cell viability measured after 72 hrs by colorimetric MTS viability assay

[1] = Antiproliferative activity against human HAP1 cells assessed as inhibition of cell viability measured after 72 hrs by colorimetric MTS viability assay; assay type: functional, cell-based; settings: HAP1, 72 h
LN-229 = experiment: Antiproliferative activity against human LN-229 cells assessed as inhibition of cell viability measured after 72 hrs by colorimetric MTS viability assay; assay type: functional, cell-based; settings: LN-229, 72 h
HCT-116 = experiment: Antiproliferative activity against human HCT-116 cells assessed as inhibition of cell viability measured after 72 hrs by colorimetric MTS viability assay; assay type: functional, cell-based; settings: HCT-116, 72 h
NCI-H460 = experiment: cells; assay type: functional, cell-based; settings: Homo sapiens, NCI-H460, 72 h
Description: Antiproliferative activity against human NCI-H460 cells assessed as inhibition of cell viability measured after 72 hrs by colorimetric MTS viability assay

[2] = Antiproliferative activity against human DND41 cells assessed as inhibition of cell viability measured after 72 hrs by real-time IncuCyte proliferation analysis; assay type: functional, cell-based; settings: DND41, 72 h
HL-60 = experiment: cells; assay type: functional, cell-based; settings: Homo sapiens, HL-60, 72 h
Description: Antiproliferative activity against human HL-60 cells assessed as inhibition of cell viability measured after 72 hrs by real-time IncuCyte proliferation analysis

K562 = experiment: cells; assay type: functional, cell-based; settings: Homo sapiens, K562, 72 h
Description: Antiproliferative activity against human K562 cells assessed as inhibition of cell viability measured after 72 hrs by real-time IncuCyte proliferation analysis

Z-138 = experiment: cells; assay type: functional, cell-based; settings: Homo sapiens, Z-138, 72 h
Description: Antiproliferative activity against human Z138 cells assessed as inhibition of cell viability measured after 72 hrs by real-time IncuCyte proliferation analysis

Staphylococcus aureus = experiment: Antibacterial activity against Staphylococcus aureus ATCC65385 assessed as growth inhibition after 20 hrs by broth microdilution method; assay type: functional
Escherichia coli = experiment: Antibacterial activity against Escherichia coli ATCC47076 assessed as growth inhibition after 20 hrs by broth microdilution method; assay type: functional
[3] = tested on: Salmonella enterica subsp. enterica; experiment: Antibacterial activity against Salmonella enterica subsp.enterica ATCC13076 assessed as growth inhibition after 20 hrs by broth microdilution method; assay type: functional
Listeria innocua = experiment: Antibacterial activity against Listeria innocua LMG11387 assessed as growth inhibition after 20 hrs by broth microdilution method; assay type: functional
Jurkat = experiment: cells; assay type: functional, cell-based; settings: Homo sapiens, 72 h
Description: Cytotoxicity against human Jurkat cells assessed as inhibition of cell viability measured after 72 hrs by real-time IncuCyte proliferation analysis

MV4-11 = experiment: cells; assay type: functional, cell-based; settings: Homo sapiens, MV4-11, 72 h
Description: Cytotoxicity against human MV4-11cells assessed as inhibition of cell viability measured after 72 hrs by real-time IncuCyte proliferation analysis

Rec1 = experiment: cells; assay type: functional, cell-based; settings: Homo sapiens, Rec1, 72 h
Description: Cytotoxicity against human REC1 cells assessed as inhibition of cell viability measured after 72 hrs by real-time IncuCyte proliferation analysis

| SMILES | IC50 (CAPAN-1) [µM] | IC50 [1] [µM] | IC50 (LN-229) [µM] | IC50 (HCT-116) [µM] | IC50 (NCI-H460) [µM] | IC50 [2] [µM] | IC50 (HL-60) [µM] | IC50 (K562) [µM] | IC50 (Z-138) [µM] | MIC50 (Staphylococcus aureus) | MIC50 (Escherichia coli) | MIC50 [3] | MIC50 (Listeria innocua) | IC50 (Jurkat) [µM] | IC50 (MV4-11) [µM] | IC50 (Rec1) [µM] |
| --- | --- | --- | --- | --- | --- | --- | --- | --- | --- | --- | --- | --- | --- | --- | --- | --- |
| C=C(C)[C@@H]1CC[C@]2(CO)CC[C@]3(C)[C@H](CC[C@@H]4[C@@]5(C)Cc6nnn(Cc7ccc8cc[nH]c8c7)c6C(C)(C)[C@@H]5CC[C@]43C)[C@@H]12 | > 100 | > 100 | > 100 | > 100 | > 100 | > 100 | > 100 | > 100 | > 100 | 233 µg/mL (≈ 392 µM) | 84.7 µg/mL (≈ 142 µM) | 43 µg/mL (≈ 72.3 µM) | 195 µg/mL (≈ 328 µM) | – | – | – |
| C=C(C)[C@@H]1CC[C@]2(CO)CC[C@]3(C)[C@H](CC[C@@H]4[C@@]5(C)Cc6nnn(Cc7ccc(OC)cc7)c6C(C)(C)[C@@H]5CC[C@]43C)[C@@H]12 | > 100 | > 100 | > 100 | > 100 | > 100 | > 100 | > 100 | > 100 | > 100 | inactive | 70.6 µg/mL (≈ 121 µM) | 32.3 µg/mL (≈ 55.1 µM) | inactive | – | – | – |
| C[C@H]1[C@H](C)CC[C@]2(C(=O)O)CC[C@]3(C)C(=CC[C@@H]4[C@@]5(C)Cc6nnn(Cc7ccc8cc[nH]c8c7)c6C(C)(C)[C@@H]5CC[C@]43C)[C@H]12 | 2.6 | 2.3 | 32.2 | 11 | 7.9 | 13.9 | 3.3 | 53.7 | 10.3 | 60.5 µg/mL (≈ 99.3 µM) | inactive | inactive | 74.4 µg/mL (≈ 122 µM) | 5.2 | 12.6 | 4.9 |
| CC1(C)CC[C@]2(C(=O)O)CC[C@]3(C)C(=CC[C@@H]4[C@@]5(C)CC[C@H](O)C(C)(C)[C@@H]5CC[C@]43C)[C@@H]2C1 [OLEANOLIC_ACID] | 50.1 | > 100 | > 100 | 32.4 | > 100 | 65.5 | 36.4 | > 100 | > 100 | 1.16 µg/mL (≈ 2.54 µM) | 392 µg/mL (≈ 859 µM) | inactive | 21.4 µg/mL (≈ 46.7 µM) | – | – | – |
| C=C(C)[C@@H]1CC[C@]2(CO)CC[C@]3(C)[C@H](CC[C@@H]4[C@@]5(C)Cc6nnn(CCc7c[nH]c8ccccc78)c6C(C)(C)[C@@H]5CC[C@]43C)[C@@H]12 | > 100 | > 100 | > 100 | > 100 | > 100 | > 100 | > 100 | > 100 | > 100 | inactive | > 20.9 µg/mL | 16.6 µg/mL (≈ 27.3 µM) | inactive | – | – | – |
| C[C@H]1[C@H](C)CC[C@]2(C(=O)O)CC[C@]3(C)C(=CC[C@@H]4[C@@]5(C)CC[C@H](O)C(C)(C)[C@@H]5CC[C@]43C)[C@H]12 [URSOLIC ACID] | 8.6 | 71.1 | 47.4 | 17.7 | 16.2 | 13.7 | 9.5 | 10.2 | 9.8 | 1.56 µg/mL (≈ 3.42 µM) | inactive | inactive | 27 µg/mL (≈ 59.2 µM) | – | – | – |
| C=C(C)[C@@H]1CC[C@]2(CO)CC[C@]3(C)[C@H](CC[C@@H]4[C@@]5(C)Cc6nnn(Cc7cccc8[nH]ccc78)c6C(C)(C)[C@@H]5CC[C@]43C)[C@@H]12 | > 100 | > 100 | > 100 | > 100 | > 100 | > 100 | > 100 | > 100 | > 100 | inactive | 99.8 µg/mL (≈ 168 µM) | 55.5 µg/mL (≈ 93.3 µM) | 379 µg/mL (≈ 636 µM) | – | – | – |
| C=C(C)[C@@H]1CC[C@]2(CO)CC[C@]3(C)[C@H](CC[C@@H]4[C@@]5(C)Cc6nnn(CCc7c[nH]c8ccc(OC)cc78)c6C(C)(C)[C@@H]5CC[C@]43C)[C@@H]12 | > 100 | > 100 | > 100 | > 100 | > 100 | > 100 | > 100 | > 100 | > 100 | inactive | 17.7 µg/mL (≈ 27.7 µM) | 17.3 µg/mL (≈ 27 µM) | 429 µg/mL (≈ 672 µM) | – | – | – |
| C=C(C)[C@@H]1CC[C@]2(CO)CC[C@]3(C)[C@H](CC[C@@H]4[C@@]5(C)Cc6nnn(Cc7ccc(F)cc7)c6C(C)(C)[C@@H]5CC[C@]43C)[C@@H]12 | > 100 | 10.3 | > 100 | > 100 | > 100 | > 100 | > 100 | > 100 | > 100 | inactive | 56.7 µg/mL (≈ 98.8 µM) | 48.1 µg/mL (≈ 83.8 µM) | inactive | – | – | – |
| C=C(C)[C@@H]1CC[C@]2(CO)CC[C@]3(C)[C@H](CC[C@@H]4[C@@]5(C)CC[C@H](O)C(C)(C)[C@@H]5CC[C@]43C)[C@@H]12 [BETULIN] | > 100 | > 100 | > 100 | > 100 | > 100 | > 100 | > 100 | > 100 | > 100 | 248 µg/mL (≈ 559 µM) | inactive | inactive | 398 µg/mL (≈ 899 µM) | – | – | – |
| O=C(O)c1cn(C2CC2)c2cc(N3CCNCC3)c(F)cc2c1=O [CIPROFLOXACIN] | – | – | – | – | – | – | – | – | – | 3.41 µg/mL (≈ 10.3 µM) | – | 0.37 µg/mL (≈ 1.12 µM) | 138 µg/mL (≈ 416 µM) | – | – | – |
| C=C(C)[C@@H]1CC[C@]2(CO)CC[C@]3(C)[C@H](CC[C@@H]4[C@@]5(C)Cc6nnn(Cc7ccc8[nH]ccc8c7)c6C(C)(C)[C@@H]5CC[C@]43C)[C@@H]12 | > 100 | > 100 | > 100 | > 100 | > 100 | > 100 | > 100 | > 100 | > 100 | 345 µg/mL (≈ 580 µM) | 96.3 µg/mL (≈ 162 µM) | 62 µg/mL (≈ 104 µM) | 187 µg/mL (≈ 315 µM) | – | – | – |
| CN[C@@H]1C[C@H]2O[C@@](C)([C@@H]1OC)n1c3ccccc3c3c4c(c5c6ccccc6n2c5c31)C(=O)NC4 [STAUROSPORINE] | – | 0.0491 | 0.0097 | 0.0481 | – | 0.0308 | – | – | – | – | – | – | – | – | – | – |
| CC1(C)CC[C@]2(C(=O)O)CC[C@]3(C)C(=CC[C@@H]4[C@@]5(C)Cc6nnn(Cc7ccc(Cl)cc7)c6C(C)(C)[C@@H]5CC[C@]43C)[C@@H]2C1 | 25.8 | > 100 | 67.1 | 63.8 | > 100 | 64.3 | 56 | > 100 | 61.5 | 180 µg/mL (≈ 298 µM) | 34.3 µg/mL (≈ 56.7 µM) | 25.2 µg/mL (≈ 41.8 µM) | 367 µg/mL (≈ 608 µM) | – | – | – |
